Results from patent publication US4740499A, “Method of enhancing the bioactivity of atrial peptides” (Monsanto Company, priority 1986, dated 1988).

What was measured:
[1] = Plasma AP-III levels (radioimmunoassay) in rats, second test: varied AP-III infusion rate, constant thiorphan dose; type: in vivo, rat; settings: for Plasma AP-III concn.: thiorphan 3 mg/kg arterial after 30 min sample
Description: Plasma levels of atriopeptin III (AP-III) were tested in rats in which the AP-III was infused intravenously both with and without contemporaneous administration of thiorphan.
Male Sprague-Dawley rats, 240-310 g, were used for all tests. The rats were housed in the test facilities for at least 6 days before they were used.
Cannulas were made of PE-10 (polyethylene) tubing inserted and glued into a piece of PE-50 tubing. Rats were anesthetized with pentobarbital (50 mg/kg i.p.) and had cannulas inserted into the left femoral vein and artery. Both were inserted four cm into the vessels and tied securely. They were then tunnelled under the skin and brought out between the rat's shoulder blades and then cut so that only 1-2 cm was externalized. Cannulas were glued in place using Superglue and filled with saline containing 100 units heparin/ml. Rats were allowed to wake up and then housed individually with food and water ad libitum.
Two days after surgery, the rats were weighed and put into restraining cages that allowed limited movement. […] Blood was collected from the femoral artery and replaced with saline containing 10 units heparin/ml. In most tests, 0.3 ml blood was taken, except that when basal AP-III levels were measured 0.4 ml blood was withdrawn. Blood was immediately centrifuged in a microcentrifuge for one minute and plasma was frozen in plastic tubes placed on dry ice. Samples were kept in a -80° C. freezer until they were analyzed.
Thiorphan was dissolved in a minimal amount of 0.1 N NaOH to produce the sodium salt. The solution was immediately neutralized using 0.5 N HCl and diluted to a final concentration with 0.9% saline.
In the second test, the level of thiorphan was kept constant at 3 mg/kg and the rate of AP-III infusion was varied. AP-III was infused into the femoral vein for a total of 60 minutes at a rate of 150,450 and 900 ng/kg/min; another group of rats received only an infusion of dextrose/saline to determine if thiorphan affected the basal levels of AP-III. Blood was taken at 15 and 30 minutes after the start of the AP-III infusion to check for a steady state AP-III plasma concentration. After the 30 min sample, thiorphan (3 mg/kg) was injected arterially and additional blood samples were taken 15 and 30 min later (45 and 60 minutes after the start of the AP-III infusion).
Plasma AP-III levels were analyzed by radioimmunoassay using a second antibody to separate free and bound AP-III. The label was ^125 I-AP-III that was purified by HPLC after iodination. Conditions were set so that 35-40% of the total counts were precipitated. The incubation medium contained sodium phosphate, pH 7.4, 0.25% bovine serum albumin (BSA), 0.5% sodium azide and 3% PEG-8000 (polyethylene glycol). The primary antibody was from a guinea pig immunized against AP-III. The incubations were done overnight at 6° C. The next day, 2 ml of 0.125% BSA was added to each tube and then they were centrifuged for 45 min at 3000 rpm. They were decanted and the radioactivity was counted in a Micromedic gamma counter. The standard curve contained 10 to 600 pg AP-III/tube. Only the linear portion of the curve was used for quantification. Plasma samples were diluted so that the AP-III concentrations were in the range of the standard curve.

[2] = test system: rabbit kidney brush border membranes (RBBM); test: physchem; type: biochemical; settings: 20 μg RBBM, 100 nM inhibitor, 60 min, 25° C.
Description: The kelatorphan was prepared according to the method described for compound 13 by Fournie-Saluski et al., J. Med. Chem. 28, 1158-1169 (1985). The following procedure was performed at 4° C. Rabbit kidneys were obtained fresh and were perfused with buffer A (containing 5 mM Tris, pH 7.5, 0.25 M sucrose, 3 mM MgCl2 and 1 mM EDTA) to remove the blood. (EDTA=ethylenediaminetetraacetic acid.) The kidneys were minced, homogenized in 5 volumes of ice-cold buffer A with a Brinkmann Polytron homogenizer and filtered through two layers of cheesecloth. The filtrate was centrifuged at 5,000×g for 20 min, the pellet was discarded and the supernatant was centrifuged at 15,000×g for 20 min. The supernatant was retained and then centrifuged at 100,000×g for 90 min. The pellet was resuspended in 50 mM Tris, pH 7.5, and the suspension was centrifuged at 100,000×g for 90 min. The washed pellet was resuspended in 50 mM Tris, pH 7.5, to give a final protein concentration of 4 mg/ml using the protein assay of Bradford, Anal. Biochem. 72, 248-254 (1976). The membrane preparation was assayed for aminopeptidase and alkaline phosphatase activities which are the marker enzymes for the kidney brush border. See Inui et al., Biochim. Biophys. Acta 647, 150-154 (1981). The final membrane preparation was enriched 8-fold in alkaline phosphatase activity, and 11-fold in aminopeptidase activity, compared to the homogenate. Renal brush border membranes (10-20 μg) were preincubated for 15 min at 25° C. in a solution containing the inhibitor and 50 mM Tris, pH 7.5. […] Incubations were for 60 min at 25° C. and were terminated by removing the membranes by filtration using Gelman GA-6 filters. The filtrates were immediately frozen on dry ice and were stable for 1 week when stored at -80° C. Samples containing the peptide degradation products were resolved by C18 reversed phase high pressure liquid chromatography (HPLC). The frozen samples were thawed immediately before injection onto a Vydac C18 column (4.6 mm I.D.×25 cm; 5 micron/300 Å) equilibrated with water containing 0.05% trifluoracetic acid (TFA). Peptide fragments and starting material were separated on a linear gradient of 0-35% acetonitrile also containing 0.05% TFA. Both the gradient and the flow rate (1 ml/min) were maintained by a Waters HPLC system consisting of two Model 510 pumps connected to an Automated Gradient Controller. Column effluent was monitored at 220 nm by a Waters Model 481 spectrophotometer, and the amount of atrial peptide material and peptide fragments were measured via a Hewlett-Packard Model […] integrator. […] Therefore, in those cases where the N-terminal serine was removed, the total amount of biologically active material remaining at the end of the incubation was taken as the % starting material remaining plus % des […] -AP-I or des […] -AP-III (as appropriate), as calculated from the peak areas of the individual peptides on HPLC.

Compound: O=C(O)CNC(=O)C(CS)Cc1ccccc1 (racemic) [thiorphan, N-(DL-2-benzyl-3-mercapto-propionyl)glycine]
- Plasma AP-III concn. ([1]; rat, AP-III 150 ng/kg/min i.v. infusion, 45 min): 2.6 ± 0.8 ng/mL
- Plasma AP-III concn. ([1]; rat, AP-III 150 ng/kg/min i.v. infusion, 60 min): 3.3 ± 1.7 ng/mL
- Plasma AP-III concn. ([1]; rat, AP-III 450 ng/kg/min i.v. infusion, 45 min): 11.2 ± 3.6 ng/mL
- Plasma AP-III concn. ([1]; rat, AP-III 450 ng/kg/min i.v. infusion, 60 min): 12.8 ± 5.8 ng/mL
- Plasma AP-III concn. ([1]; rat, AP-III 900 ng/kg/min i.v. infusion, 45 min): 29.8 ± 7.6 ng/mL
- Plasma AP-III concn. ([1]; rat, AP-III 900 ng/kg/min i.v. infusion, 60 min): 23.0 ± 6.0 ng/mL
- Plasma AP-III concn. ([1]; rat, no AP-III infusion (dextrose/saline only, basal AP-III), 45 min): 0.6 ± 0.3 ng/mL
- Plasma AP-III concn. ([1]; rat, no AP-III infusion (dextrose/saline only, basal AP-III), 60 min): 0.5 ± 0.2 ng/mL
- Increase of plasma AP-III levels after thiorphan administration ([1]; rat, thiorphan 3 mg/kg given 30 min after start of various AP-III infusion rates): 2-3 fold
- Basal levels of AP-III after inhibitor ([1]; rats receiving no exogenous peptide, thiorphan 3 mg/kg): did not increase
- Peak area as % Initial AP: AP ([2]; (c) 40 μM AP-I): 27.3%
- Peak area as % Initial AP: AP + des Ser^1 -AP ([2]; (c) 40 μM AP-I): 87.9%
- Peak area as % Initial AP: des Ser^1 -AP ([2]; (c) 40 μM AP-I): 60.6%
- Peak area as % Initial AP: AP ([2]; (c) 40 μM AP-III): 38.1%
- Peak area as % Initial AP: AP + des Ser^1 -AP ([2]; (c) 40 μM AP-III): 86.1%
- Peak area as % Initial AP: des Ser^1 -AP ([2]; (c) 40 μM AP-III): 48.0%
- Peak area as % Initial AP: AP ([2]; (c) 40 μM SLRR(Met^8)AP-III): 86.5%
- Peak area as % Initial AP: AP + des Ser^1 -AP ([2]; (c) 40 μM SLRR(Met^8)AP-III): 86.5%
- Peak area as % Initial AP: des Ser^1 -AP ([2]; (c) 40 μM SLRR(Met^8)AP-III): 0%
